According to the METLIN SMRT retention time set (Domingo-Almenara et al. 2019):

Assay: gradient 5% acetonitrile 3 min, to 50% in 2 min, to 85% in 15 min, held 3 min, 100 µL/min
Conditions: column: Zorbax Extend-C18 2.1 x 50 mm; eluents: water / acetonitrile, 0.1% formic acid
Procedure, shortened: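 The system's dead and dwell volumes were 40 μL and 900 μL, with a Zorbax Extend-C18 column (2.1 × 50 mm, 1.8 μm) run at 100 μL/min in water and acetonitrile containing 0.1% formic acid each. Pure standards were analyzed in mixtures of ~100 molecules by HPLC–quadrupole time-of-flight mass spectrometry in positive and negative ionization mode. Retention time was assigned from computationally picked, manually inspected adduct peaks.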

Compound | RP-LC retention time
O=S(=O)(NCCc1c[nH]c2ncccc12)c1ccccc1Br | 630 s
Cc1ccccc1NC(=O)Nc1c(-c2ccccc2)nc2ccccn12 | 661 s
Cc1cccc(-c2ncccc2CNS(=O)(=O)c2ccc(C#N)cc2)c1 | 697 s
CCN1CCn2cc(S(=O)(=O)NCc3ccccc3C(F)(F)F)cc2C1=O | 760 s
COC[C@@H]1CN(C(=O)c2cc3cc(Cl)ccc3[nH]2)C[C@H]1C(N)=O | 672 s
Cc1ccn2c(NC(=O)c3cccc(C(F)(F)F)c3)c(-c3ccccc3)nc2c1 | 736 s
COC(=O)C1=CN(c2ccc(F)c(F)c2)c2ccc(F)cc2S1(=O)=O | 854 s
O=C(CS(=O)Cc1cnn(-c2ccccc2)c1-n1cccc1)N1CCC(Cc2ccccc2)CC1 (stereo not drawn) | 1010 s
Cc1cc(=O)n(CC(=O)Nc2ccc(F)cc2)c(-c2ccc(F)cc2)n1 | 1040 s
Cc1sc(NC(=O)C(F)(F)F)nc1-c1ccc2c(c1)NC(=O)C(C)O2 (stereo not drawn) | 840 s
CC(C)OCCCNC(=O)C1Cn2cccc2C(=O)N1C (stereo not drawn) | 621 s
CC(C)c1noc(-c2ccn3c(CC(=O)N4CCSCC4)nnc3c2)n1 | 726 s
Cn1nc(CNC(=O)C2(c3ccccc3)CC2)c2c1CCN(S(C)(=O)=O)C2 | 694 s
Cc1nc2cc(-c3noc(-c4cc(F)ccc4Cl)n3)ccc2o1 | 1150 s
O=c1c2nc(-c3ccc(F)cc3F)cn2ccn1-c1ccc(F)cc1 | 862 s
COc1ccc(-c2nc(CNC(=O)c3ccc(-c4noc(C5CC5)n4)cc3)no2)cc1 | 952 s
Nc1nc2ccc([N+](=O)[O-])cc2[nH]1 | 610 s
CCc1cc(=O)n(CC(=O)NC2CCCC2)c(N2CCOCC2)n1 | 647 s
Cc1occc1C(=O)N[C@@H]1CN(S(C)(=O)=O)C[C@H]1CN(C)C | 573 s

Compound | RP-LC retention time
CCCC(=O)NCc1c(-c2ccccc2)nc2n1CCS2 | 604 s
CCOC(=O)CCNC(=O)N1c2ccccc2CC1c1nc(C2CC2)no1 (stereo not drawn) | 853 s
CNC(=O)c1nc(C(C)(C)NC(=O)c2ccnn2C)nc2c1OCO2 | 603 s
Cc1ccc(CN2CC(Oc3ccc(-c4noc(-c5cccnc5)n4)cc3)C2)o1 | 691 s
CCC(C(=O)NCCN1CCN(CC)CC1)n1c2ccccc2c2cnn(C)c(=O)c21 (stereo not drawn) | 595 s
Cc1cc(C)cc(NS(=O)(=O)c2cc3n(c2)CCN(CC(C)C)C3=O)c1 | 869 s
CCOc1ccc(S(=O)(=O)Nc2ccc(-c3cn4ccccc4n3)cc2)cc1 | 661 s
CCc1ccccc1S(=O)(=O)N1CCc2nc[nH]c2C1 | 612 s
Cc1ccc(CNC(=O)CN2C(=O)C3CCCCN3c3ccc(S(=O)(=O)N(C)C)cc32)o1 (stereo not drawn) | 867 s
CC(C)n1c(N2CCN(C(=O)Cc3ccc(F)cc3)CC2)cc(=O)n(C(C)C)c1=O | 818 s
O=C1CC(c2cccc(Cl)c2)Cc2c1cnn2-c1nc2ccccc2[nH]1 (stereo not drawn) | 1030 s
COc1ccc(Cn2c(=O)c3sccc3n(Cc3nc(-c4ccccc4C)no3)c2=O)cc1 | 1150 s
O=C(Cn1cc(-c2nc(-c3cccs3)no2)ccc1=O)c1ccc2c(c1)OCO2 | 850 s
CC(C)c1ccc(S(=O)(=O)N2CCc3c(c(-c4nnc(-c5ccccc5F)o4)nn3C)C2)cc1 | 1070 s
O=C(NCc1cc(F)cc(F)c1)c1ccc(-c2cccs2)nc1 | 925 s
Fc1cccc(CSc2ccc(-n3ccnc3)nn2)c1 | 604 s
Cc1oc(-c2[nH]ncc2C(=O)N2CCCCC2)cc1S(=O)(=O)N1CCC(C)CC1 | 809 s
O=C(Cc1csc(-n2cccc2)n1)NCc1nc(-c2ccccc2)no1 | 821 s
Cc1oc(-c2ccccc2)nc1Cc1noc(-c2cccc(F)c2)n1 | 1160 s

Next, values leading:

RP-LC retention time | Compound
634 s | O=S(=O)(c1cccc2cccnc12)N1CC(c2noc(C3CCCN3CC3CC3)n2)C1 (stereo not drawn)
866 s | O=C(NCCc1csc(-c2ccccc2)n1)C1CCN(C(=O)Cc2ccc(Cl)cc2)CC1
670 s | CCN1CCN(C(=O)CN2c3ccc(Br)cc3-c3ccccc3S2(=O)=O)CC1
860 s | CCOc1ccc(NC(=O)Cn2c(=O)c(CCC(=O)NC3CCCC3)nc3ccccc32)cc1
659 s | COCCCNC(=O)C1CCN(c2nnc(-c3ccccc3)o2)CC1
1330 s | Cc1ccc(Sc2nccnc2N2CCCC(C(=O)N3CCN(c4ccccc4C)CC3)C2)cc1 (stereo not drawn)
1020 s | Cc1nnc(-c2ccc3ccn(CC(=O)N4CCN(c5cc(Cl)ccc5C)CC4)c3c2)o1
708 s | Cc1ccc(-c2ccc(N3CCCC(C(=O)NCCCOC(C)C)C3)nn2)cc1C (stereo not drawn)
1330 s | COc1ccc(Cl)cc1NC(=O)c1c(O)c2cccc3c2n(c1=O)CC3
944 s | Cc1ccc(C)c(N2CCN(C(=O)C3CCN(C(=O)C4Sc5ccccc5NC4=O)CC3)CC2)c1 (stereo not drawn)
740 s | Cc1nnc(-c2ccc3ccn(CC(=O)NC4CCCC4)c3c2)o1
1080 s | COc1ccc(OC)c(NC(=O)Cc2cccn2-c2ccc(Cl)cc2)c1
934 s | COc1ccc(-c2noc(C3CCCN3C(=O)c3ccc(Cl)cc3OC)n2)cc1OC (stereo not drawn)
782 s | O=C(C1CCCC1)N1CCN(c2cc(-c3ccccc3)[nH]n2)CC1
982 s | COc1ccc(OC)c(-c2cn3ccn(-c4ccc(C)c(Cl)c4)c(=O)c3n2)c1
1220 s | COc1ccccc1-c1nc(-c2ccc(S(=O)(=O)N3CCCCC3)cc2)no1
641 s | CCOC(=O)Cc1ccc(NC(=O)N2CCN(CC)c3ncccc32)cc1
765 s | CC(C)n1cnc(S(=O)(=O)N2CCCC(C(=O)Nc3ccc(F)cc3)C2)c1 (stereo not drawn)
684 s | Cc1cc(NC(=O)CN2C(=O)CCc3cc(Br)ccc32)c2ccccc2n1
796 s | COc1ccccc1OCCN1C(=O)C2(CCOCC2)CC1c1nnnn1C(C)(C)C (stereo not drawn)
1070 s | O=C(CN1C(=O)C(C(=O)N2CCCC2)Sc2ccccc21)Nc1ccc(Cl)cc1 (stereo not drawn)
855 s | O=C(CSc1nnc2c3sc(N4CCCC4)nc3ncn12)Nc1ccc(Cl)cc1
930 s | CCc1ccc(NC(=O)Cn2c(=O)cc(-c3nc(C)no3)c3ccccc32)cc1
675 s | CCOc1ccccc1NC(=O)Nc1ccc2c(c1)CC(=O)N2
1080 s | CCOC(=O)c1cc(S(=O)(=O)N2CCCC2C(=O)Nc2ccc(Br)c(C)c2)cn1C (stereo not drawn)

RP-LC retention time | Compound
882 s | CCCN1C(=O)CCc2cc(NC(=O)c3cc4ccccc4[nH]3)ccc21
775 s | COc1ccc(CNC(=O)c2nc(N3CCSCC3)c3cnn(C)c3n2)cc1
887 s | O=C(CCC1CCCC1)NCCC1CCN(C(=O)Nc2ccc(F)cc2)CC1
893 s | CCc1ccc(NC(=O)CCc2c(C)n(C)c3nc(-c4ccccc4)nn3c2=O)cc1
1230 s | COc1ccc(N2CCN(c3ncccc3-c3nc(-c4ccc(Cl)cc4)no3)CC2)cc1
1130 s | O=S(=O)(c1ccc(Cl)c(-c2nnc(-c3ccccc3)o2)c1)N1CCCCC1
970 s | CCc1cccc(NC(=O)N2CCCC2c2nc(-c3ccccc3OC)no2)c1 (stereo not drawn)
1120 s | CCCc1cc(C(=O)N2CCCC2c2ccc(OC)cc2)no1 (stereo not drawn)
612 s | Cc1nc(-c2ccc(C(=O)NCc3cccnc3)cc2)cs1
1100 s | COc1ccc(-c2noc(-c3nc(Cc4cccc(F)c4)no3)n2)cc1OC
642 s | O=C(COc1ccc(-c2nnc3n2CCCC3)cc1)Nc1cccc(Br)c1
1100 s | CCOc1ccccc1NC(=O)N1CCCC1c1nc(-c2cccc(OC)c2)no1 (stereo not drawn)
620 s | COc1ccc(NC(=O)N2CCCC(Cn3cnc4cccnc43)C2)cc1OC (stereo not drawn)
599 s | COc1ccc(NC(=O)N2CCN(C3=CC4=NCC(C)N4C=N3)CC2)cc1 (stereo not drawn)
630 s | C=CC(=O)Nc1cc2c(Nc3ccc(F)c(Cl)c3)ncnc2cc1OCCCN1CCOCC1
717 s | CCc1ccc(C(=O)NCCc2nc3cccnc3n2C(C)C)cc1
784 s | COc1ccc(-c2c(C)noc2NC(C)=O)cc1S(=O)(=O)N1CCc2ccccc21
973 s | O=C(NC1CCCCCC1)c1ccc2ccnc(N3CCN(c4ccc(F)cc4)CC3)c2c1
700 s | Cc1nc(-c2ccccc2)cc2nn(CC(=O)N3CCOCC3)c(=O)n12
713 s | CC(=O)N1CCc2cc(N3CC(C(=O)NCc4ccc(F)cc4Cl)CC3=O)ccc21 (stereo not drawn)
607 s | CC(=O)N1CCN(c2ncc(C(=O)Nc3ccccc3)c(N)n2)CC1
712 s | Cn1nnc2ccc(-c3noc(CNC(=O)c4cccs4)n3)cc21
872 s | CCOC(=O)c1ccc(NC(=O)Cn2c(=O)nc(N3CCCC(C)C3)c3ccccc32)cc1 (stereo not drawn)
733 s | CCOc1cc(=O)n2c(c1C(=O)NCCCN1CCCc3ccccc31)CCCCC2
715 s | CCOC(=O)c1cn(CC(=O)Nc2ccc3c(c2)OCO3)c2nc(C)ccc2c1=O
